For 12 compounds, TGI and GI50 results are on record in PubChem BioAssay (NCI).

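Test compounds were applied to cells in 96-well plates for 48 hours at 5 doses. The concentration for 50% growth inhibition is given as GI50. Definition used: TGI = concentration required for complete inhibition of growth.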

Some test systems named below: OVCAR-5 ovarian; OVCAR-4 ovarian; NCI-H226 lung; SK-MEL-2 melanoma; HOP-62 NSCLC; IGROV1 ovarian; MOLT-4 leukemia; NCI-H460 lung; UACC-257 melanoma; HCT-15 colon.
Common to all, as to experiment: NCI anticancer screen, dose series, 48 h

With `COc1cc2cc3c4c(cc(OC)c(OC)c4c2cc1OC)CCN3C(=O)CCCC(=O)O`, the TGI in the assay with OVCAR-5 ovarian, with OVCAR-4 ovarian, in the assay on NCI-H226 lung, in the assay with SK-MEL-2 melanoma, in the assay on HOP-62 NSCLC and in the assay on IGROV1 ovarian was more than 100 µM in each case. Moreover, the TGI with MOLT-4 leukemia, with NCI-H460 lung and in the assay on UACC-257 melanoma was more than 100 µM each time.
On to `COc1ccc(/C=C/C(=O)c2sc(N)nc2C)cc1`, for which the TGI in the assay with OVCAR-5 ovarian, in the assay on HCT-15 colon, with SK-MEL-2 melanoma, in the assay on HOP-62 NSCLC, with IGROV1 ovarian and with MOLT-4 leukemia was more than 100 µM in each case. For the same compound, the TGI in the assay with NCI-H460 lung and with UACC-257 melanoma was more than 100 µM throughout.
With `CN(C)c1cccc(-c2cc(=O)c3ccccc3[nH]2)c1`, the TGI with HCT-15 colon was more than 100 µM; with NCI-H226 lung it was 66.9 µM; in the assay with HOP-62 NSCLC, more than 100 µM; in the assay with IGROV1 ovarian, more than 100 µM; with MOLT-4 leukemia it was more than 100 µM; in the assay with NCI-H460 lung it was more than 100 µM. In the assay on UACC-257 melanoma, this compound gave a TGI of more than 100 µM. The GI50 with NCI-H226 lung was 29.4 µM.
Take `C=C1CC[C@@H]2C(C)(C)[C@@H](O)CC[C@@]2(C)[C@@H]1COc1ccc2ccc(=O)oc2c1`: the GI50 with OVCAR-5 ovarian was 18.7 µM; in the assay with HCT-15 colon it was 11.5 µM; in the assay with OVCAR-4 ovarian, 6.97 µM; with SK-MEL-2 melanoma it was 15.5 µM; in the assay with HOP-62 NSCLC, 15.2 µM; with IGROV1 ovarian, 15.1 µM. Moreover, the GI50 was 7.22 µM in the assay on MOLT-4 leukemia, 14.9 µM in the assay on NCI-H460 lung and 14.1 µM in the assay on UACC-257 melanoma. For the same compound, the TGI with OVCAR-5 ovarian is 39.9 µM; in the assay on HCT-15 colon, 26.8 µM; in the assay on OVCAR-4 ovarian it was 21.6 µM; in the assay on SK-MEL-2 melanoma it was 32.8 µM; in the assay on HOP-62 NSCLC, 35.6 µM; with IGROV1 ovarian, 31.9 µM. The TGI amounted to 35.6 µM in the assay with MOLT-4 leukemia, 32.4 µM in the assay with NCI-H460 lung and 32.1 µM in the assay on UACC-257 melanoma.
Take `C=CCC(C(=O)OC)C1(C(=O)OC)c2[nH]c3ccccc3c2CCN1Cc1ccccc1` (configuration not stated): the TGI with OVCAR-5 ovarian, with HCT-15 colon, in the assay with OVCAR-4 ovarian, in the assay with SK-MEL-2 melanoma, with HOP-62 NSCLC and in the assay on IGROV1 ovarian was more than 100 µM in each case. In the assay with MOLT-4 leukemia, the TGI is more than 100 µM.
Take `C/C(=N\NC(=O)CC(=O)Nc1ccc(C)cc1)c1cc2ccccc2oc1=O`: the TGI in the assay on HCT-15 colon, with NCI-H226 lung, in the assay with SK-MEL-2 melanoma, in the assay on HOP-62 NSCLC, in the assay on IGROV1 ovarian and in the assay on MOLT-4 leukemia was more than 100 µM in each case. Also, the TGI in the assay with NCI-H460 lung and with UACC-257 melanoma was more than 100 µM in each case.
For `COC1=C(OC)C(=O)C(/C=C(\C)C(=O)O)=C(C)C1=O`, the GI50 in the assay with OVCAR-5 ovarian, with HCT-15 colon, in the assay with OVCAR-4 ovarian, in the assay with SK-MEL-2 melanoma, in the assay on HOP-62 NSCLC and with IGROV1 ovarian was more than 100 µM each time. The GI50 in the assay on MOLT-4 leukemia, with NCI-H460 lung and in the assay with UACC-257 melanoma was more than 100 µM each time. The TGI with OVCAR-5 ovarian, in the assay with HCT-15 colon, with OVCAR-4 ovarian, with SK-MEL-2 melanoma, with HOP-62 NSCLC and in the assay with IGROV1 ovarian was more than 100 µM each time. Further, the TGI with MOLT-4 leukemia, in the assay on NCI-H460 lung and in the assay on UACC-257 melanoma was more than 100 µM throughout.
`Cc1ccc(-n2c3c(c4c(CN5CCCCC5)c(O)ccc42)CCc2ccccc2C3=O)cc1`: the GI50 was more than 100 µM in the assay on OVCAR-5 ovarian; more than 100 µM with HCT-15 colon; more than 100 µM in the assay with NCI-H226 lung; more than 100 µM with SK-MEL-2 melanoma; 27.5 µM with HOP-62 NSCLC; 39.9 µM in the assay with IGROV1 ovarian. The GI50 in the assay on MOLT-4 leukemia, in the assay with NCI-H460 lung and with UACC-257 melanoma was more than 100 µM in each case. For the same compound, the TGI was more than 100 µM with OVCAR-5 ovarian; more than 100 µM in the assay with HCT-15 colon; more than 100 µM with NCI-H226 lung; more than 100 µM in the assay on SK-MEL-2 melanoma; 80.7 µM in the assay with HOP-62 NSCLC; more than 100 µM in the assay with IGROV1 ovarian. Besides, the TGI in the assay with MOLT-4 leukemia, in the assay with NCI-H460 lung and in the assay with UACC-257 melanoma was more than 100 µM each time.
For `Cc1cc2c3ccccc3n(C)c2c2c1C(=O)c1ccccc1C2=O`, the TGI in the assay on OVCAR-4 ovarian worked out at 51.4 µM; in the assay with NCI-H226 lung, 30.5 µM; in the assay on SK-MEL-2 melanoma, 41.3 µM; with HOP-62 NSCLC it was 53.6 µM; in the assay with IGROV1 ovarian, 54.3 µM; with MOLT-4 leukemia it was 27.4 µM. The compound also came in with a TGI with UACC-257 melanoma of 43.3 µM.
As to `CN(C)CC(C(=O)c1ccccc1)c1ccccc1` (configuration not stated), the GI50 with OVCAR-5 ovarian was 5.93 µM; with HCT-15 colon, 1.11 µM; in the assay with NCI-H226 lung, 2.42 µM; in the assay on SK-MEL-2 melanoma it was 3.35 µM; in the assay on HOP-62 NSCLC, 11.3 µM; in the assay with IGROV1 ovarian, 2.2 µM. The results for the GI50 in the assay on MOLT-4 leukemia, in the assay with NCI-H460 lung and in the assay on UACC-257 melanoma were 4.2 µM, 3.93 µM and 1.99 µM, respectively. Further, the TGI with OVCAR-5 ovarian was found to be 16.8 µM; in the assay on HCT-15 colon, 2.54 µM; in the assay on NCI-H226 lung, 7.79 µM; in the assay on SK-MEL-2 melanoma it was 7.87 µM; with HOP-62 NSCLC, 23.5 µM; in the assay with IGROV1 ovarian it was 5.47 µM. Besides, the TGI is 31.3 µM in the assay on MOLT-4 leukemia, 16 µM in the assay on NCI-H460 lung and 5.81 µM in the assay on UACC-257 melanoma.
Take `CC1=C(C(=O)Nc2cccc(C(F)(F)F)c2)C(c2ccc(O)cc2)C(C(=O)Nc2cccc(C(F)(F)F)c2)=C(C)N1`: the TGI in the assay with OVCAR-5 ovarian worked out at 72.6 µM; in the assay with OVCAR-4 ovarian it was 86.6 µM; with NCI-H226 lung, 44.3 µM; in the assay with SK-MEL-2 melanoma it was 34.6 µM; in the assay on HOP-62 NSCLC it was 45.5 µM; in the assay on IGROV1 ovarian, 89.2 µM. In addition, the TGI with MOLT-4 leukemia was 47 µM; with NCI-H460 lung, 43.1 µM; in the assay with UACC-257 melanoma it was 36 µM.
With `O=[N+]([O-])c1cccc(C2SCc3nc4ccccc4n32)c1` (configuration not stated), the TGI in the assay on OVCAR-5 ovarian, in the assay with OVCAR-4 ovarian, in the assay with NCI-H226 lung, in the assay on SK-MEL-2 melanoma, in the assay on HOP-62 NSCLC and with IGROV1 ovarian was more than 100 µM each time. The TGI with MOLT-4 leukemia, in the assay with NCI-H460 lung and in the assay on UACC-257 melanoma was more than 100 µM in each case.
